The source of these data is patent US9988399B2, “Bicyclic compounds as ACC inhibitors and uses thereof” (Gilead Apollo, LLC, priority 2013, dated 2018).

The target in assay [1] is ACC2 (Homo sapiens, UniProt O00763). The assay is described as follows: in vitro ACC2 inhibition assay (ADP-Glo). The class given is biochemical. The conditions noted are these: 5 nM ACC2, 20 μM ATP, 20 μM acetyl-CoA. On the procedure:
An exemplary procedure for the in vitro ACC inhibition assay, which can be used to determine the inhibitory action of compounds of the invention toward either ACCT or ACC2, follows. The ADP-Glo™ Kinase Assay kit from Promega is used. The ADP-Glo™ Kinase Assay is a luminescent ADP detection assay to measure enzymatic activity by quantifying the amount of ADP produced during an enzyme reaction. The assay is performed in two steps; first, after the enzyme reaction, an equal volume of ADP-Glo™ Reagent is added to terminate the reaction and deplete the remaining ATP. Second, the Kinase Detection Reagent is added to simultaneously convert ADP to ATP and allow the newly synthesized ATP to be measured using a luciferase/luciferin reaction. Luminescence can be correlated to ADP concentrations by using an ATP-to-ADP conversion curve. The detailed procedure is as follows. 50 μL of the compound being tested (600 uM in DMSO) is added to a 384-well dilution plate. The compound is diluted 1:3 in succession in DMSO for each row for 11 wells. […] is added to 384-well white Optiplate assay plate. 0.5 μL diluted compound solution in each column from step 2 is added to the assay plate, each row containing 2 replicates. For the last 2 rows, add 0.5 μL negative control (DMSO) in one row and 0.5 μL positive control (compound I-97) in the other. The plates are incubated at room temperature for 15 minutes. 5 μL substrate working solution is added to each well to initiate reaction. Final ACC2 reaction concentrations consist of: 5 nM ACC2, 20 μM ATP, 20 μM acetyl-CoA, 12 mM NaHCO3, 0.01% Brij35, 2 mM DTT, 5% DMSO, test compound concentrations: 30 μM, 10 μM, 3.33 μM, 1.11 μM, 0.37 μM, 0.123 μM, 0.0411 μM, 0.0137 μM, 0.00457 μM, 0.00152 μM, and 0.00051 μM. Plates are incubated at room temperature for 60 minutes. 10 μL ADP glo reagent is added. Plates are incubated at room temperature for 40 minutes. 20 μL kinase detection reagent is added. Plates are incubated at room temperature for 40 minutes, then read on a Perkin Elmer EnVision 2104 plate reader for luminescence as Relative Light Units (RLU).
Data for each concentration, as well as the positive and negative controls are averaged, and the standard deviation calculated. Percent inhibition is calculated by the formula: 100×(average negative control−compound)/(average negative control−average positive control). The IC50 for each compound is calculated by fitting the data with a non-linear regression equation: Y=Bottom+(Top-Bottom)/(1+10^((Log IC50−X)*HillSlope)), where X is the log of compound concentration and Y is percent inhibition.
A general note: ADP-Glo first removes unused ATP, then detects ADP through luciferase.

Another assay deals with ACC1. The following applies: ACC1 isolated from rat, mouse, monkey and human; cited from earlier work.
The subject of assay [2] is ACC2. The conditions noted are these: ACC2 isolated from rat, mouse, monkey and human; cited from earlier work.

SMILES strings stand for the structures.

Sequence of ACC2 (Homo sapiens, UniProt O00763) (O00763 whole entry, species assumed): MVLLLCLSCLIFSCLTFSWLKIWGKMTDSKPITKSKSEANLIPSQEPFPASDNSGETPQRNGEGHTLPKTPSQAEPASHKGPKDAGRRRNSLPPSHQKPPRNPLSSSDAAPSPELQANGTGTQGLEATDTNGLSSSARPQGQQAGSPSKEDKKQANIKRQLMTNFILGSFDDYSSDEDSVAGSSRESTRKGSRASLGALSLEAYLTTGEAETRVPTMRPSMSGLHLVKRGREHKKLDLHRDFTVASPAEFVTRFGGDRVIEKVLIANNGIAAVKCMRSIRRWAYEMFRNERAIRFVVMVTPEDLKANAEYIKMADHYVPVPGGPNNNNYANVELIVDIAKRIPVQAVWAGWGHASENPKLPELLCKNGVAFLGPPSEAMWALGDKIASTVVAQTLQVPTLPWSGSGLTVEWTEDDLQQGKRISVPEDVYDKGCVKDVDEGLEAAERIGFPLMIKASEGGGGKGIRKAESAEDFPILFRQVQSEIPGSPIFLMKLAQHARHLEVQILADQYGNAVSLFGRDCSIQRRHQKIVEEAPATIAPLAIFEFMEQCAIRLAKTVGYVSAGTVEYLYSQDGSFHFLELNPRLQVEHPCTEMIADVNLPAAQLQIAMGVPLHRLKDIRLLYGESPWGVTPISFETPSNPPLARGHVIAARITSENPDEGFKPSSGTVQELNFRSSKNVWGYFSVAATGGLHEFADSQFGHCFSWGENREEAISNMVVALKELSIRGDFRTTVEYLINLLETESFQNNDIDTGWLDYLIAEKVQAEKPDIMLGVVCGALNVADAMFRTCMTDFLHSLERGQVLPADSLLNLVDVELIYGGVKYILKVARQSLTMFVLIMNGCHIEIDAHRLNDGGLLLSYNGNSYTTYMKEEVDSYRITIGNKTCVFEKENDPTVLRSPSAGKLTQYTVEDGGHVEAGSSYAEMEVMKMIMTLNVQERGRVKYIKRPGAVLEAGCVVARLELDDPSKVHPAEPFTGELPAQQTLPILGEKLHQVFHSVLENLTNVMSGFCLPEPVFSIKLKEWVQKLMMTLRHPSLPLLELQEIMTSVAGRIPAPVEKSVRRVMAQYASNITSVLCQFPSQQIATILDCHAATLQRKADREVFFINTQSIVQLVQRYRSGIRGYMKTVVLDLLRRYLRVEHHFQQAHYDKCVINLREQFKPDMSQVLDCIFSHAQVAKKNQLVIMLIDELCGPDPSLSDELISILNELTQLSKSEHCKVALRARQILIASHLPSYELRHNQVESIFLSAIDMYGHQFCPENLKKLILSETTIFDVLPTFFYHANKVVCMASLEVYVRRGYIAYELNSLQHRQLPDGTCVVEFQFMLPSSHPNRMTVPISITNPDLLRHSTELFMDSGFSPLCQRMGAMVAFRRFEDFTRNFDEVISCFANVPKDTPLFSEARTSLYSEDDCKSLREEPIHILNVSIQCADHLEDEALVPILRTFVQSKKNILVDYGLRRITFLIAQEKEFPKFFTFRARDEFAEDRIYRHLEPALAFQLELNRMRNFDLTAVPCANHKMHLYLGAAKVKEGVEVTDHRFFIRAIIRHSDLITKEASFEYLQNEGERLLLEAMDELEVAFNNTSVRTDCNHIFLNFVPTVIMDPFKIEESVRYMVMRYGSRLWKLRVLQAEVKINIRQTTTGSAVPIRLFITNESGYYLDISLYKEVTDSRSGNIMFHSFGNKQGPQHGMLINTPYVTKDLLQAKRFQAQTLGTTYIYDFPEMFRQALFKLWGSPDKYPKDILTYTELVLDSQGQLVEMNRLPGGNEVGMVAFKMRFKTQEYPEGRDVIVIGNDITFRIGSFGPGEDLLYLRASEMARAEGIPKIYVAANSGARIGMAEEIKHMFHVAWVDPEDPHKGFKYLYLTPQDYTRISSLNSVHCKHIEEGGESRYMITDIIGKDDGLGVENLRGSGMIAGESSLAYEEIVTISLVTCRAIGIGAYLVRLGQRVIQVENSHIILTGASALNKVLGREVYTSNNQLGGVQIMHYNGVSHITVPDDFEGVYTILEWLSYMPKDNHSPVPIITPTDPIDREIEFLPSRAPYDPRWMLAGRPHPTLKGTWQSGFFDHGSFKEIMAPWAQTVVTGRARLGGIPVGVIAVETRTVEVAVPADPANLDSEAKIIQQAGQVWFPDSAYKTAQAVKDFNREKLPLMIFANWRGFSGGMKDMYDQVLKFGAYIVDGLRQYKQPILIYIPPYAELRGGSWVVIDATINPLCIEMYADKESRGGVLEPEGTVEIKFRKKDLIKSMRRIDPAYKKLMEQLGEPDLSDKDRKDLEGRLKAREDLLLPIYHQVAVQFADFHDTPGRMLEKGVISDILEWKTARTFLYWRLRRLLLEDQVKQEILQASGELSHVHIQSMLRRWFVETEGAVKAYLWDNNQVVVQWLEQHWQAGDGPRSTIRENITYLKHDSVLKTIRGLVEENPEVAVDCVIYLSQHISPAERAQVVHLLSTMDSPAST

Regarding `COc1ccccc1CCn1c(=O)n(CC(=O)O)c(=O)c2c1nc(-c1ncco1)n2C` [Compound I-36, 2-(3-(2-methoxyphenethyl)-7-methyl-8-(oxazol-2-yl)-2,6-dioxo-2,3,6,7-tetrahydro-1H-purin-1-yl)acetic acid], on ACC2 [1], the IC50 was in the range of 5000 to 20000 nM. For the compound `COc1ccccc1CCc1cn(CC(=O)O)c(=O)c2c(C)c(-c3ncco3)sc12` [Compound I-33, 2-(7-(2-methoxyphenethyl)-3-methyl-2-(oxazol-2-yl)-4-oxothieno[3,2-c]pyridin-5(4H)-yl)acetic acid], the IC50 on ACC2 [1] is ≤ 1000 nM. On the same count and under the same terms, in the case of `COc1ccccc1CCn1c(=O)n(CC(=O)O)c(=O)c2nc(-c3ncco3)sc21` [Compound I-35, 2-(4-(2-methoxyphenethyl)-2-(oxazol-2-yl)-5,7-dioxo-4,5-dihydrothiazolo[5,4-d]pyrimidin-6(7H)-yl)acetic acid] it was 5000 to 20000 nM. Same read-out and setting: in the case of `COc1ccccc1CCc1cn(CC(N)=O)c(=O)c2c(C)c(-c3ncco3)sc12` [Compound I-34, 2-(7-(2-methoxyphenethyl)-3-methyl-2-(oxazol-2-yl)-4-oxothieno[3,2-c]pyridin-5(4H)-yl)acetamide] it was ≤ 1000 nM.

On to `O=C(c1c2ccccc2cc2ccccc12)N1CCC(N2CCC[C@@H](C(=O)N3CCOCC3)C2)CC1` [CP-640186], for which the IC50 in the assay on ACC1 and in the assay with ACC2 [2] was ~60 nM each time.

What is called IC50 is the concentration needed to halve the response being measured.
